# Measured values published in patent US20230248717A1, “N-(3-HYDROXYPYRIDINE-2-CARBONYL)GLYCINE-BASED ANTITUMOR DRUG SENSITIZER AND APPLICATION THEREOF” (ZHEJIANG UNIVERSITY, priority 2019, published 2023).
# Like-named read-outs stand apart in the source and are kept apart here.
# Columns and labels:
# [1] = system: CT26 mouse colon cancer cells; assay: Cytotoxicity (MTT) in combination with chemotherapeutic drugs;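 also: MTT read-out taken as absorbance at 562 nm after a 3 h dye incubation, medium-only wells as blank, values averaged over three independent experiments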
# Method: (§1) CT26 cells (MC38 cells, 4T1 cells, B16FIO cells, HePa1-6 cells, H22 cells, LLC cells, MB49 cells, P388 cells, C6 cells, BXPC-3 cells, Hela cells, MDA-MB-231 cells, A2780 cells. PC3 cells. HepG2 cells, and HGC-27 cells) were cultured at 5,000 cells/well in a 96-well plate, 100 μL of a medium was added to each well, and the cells were incubated in a 37° C. constant-temperature incubator with 5% CO2 and 95% humidity for 24 h. 100 μL of different concentrations of drugs (DOX: 0.01 μg/mL to 10 μg/mL; PTX: 0.01 μg/mL to 50 μg/mL; Cela: 0.05 μg/mL to 1 μg/mL; sensitizer: 5 μg/mL) were added to each well, while 100 lit of a medium solution was added to the blank group. After culturing for 48 h, centrifugation was conducted at 1,100 rpm for 6 min, the medium in each well was discarded, 100 μL of an 11,11T working solution was added, and the culturing was continued for 3 h. Centrifugation was conducted at 3,300 rpm. for 5 min, the MITT medium in each well was discarded, 100 pt, of the DMSO was added, and the plate was shaken for 5 min to dissolve all crystals in each well. An absorbance of the sample at 562 nm was detected by a microplate reader. Each set of data was an average of three independent experimental results on the same sample.
# [2] = system: CT26 mouse colon cancer cells;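 also: MTT read-out taken as absorbance at 562 nm after a 3 h dye incubation, medium-only wells as blank, values averaged over three independent experiments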
# Method: as §1
# [3] = system: HIF-1α expression in CT26 cells; assay: HIF-1α expression in tumor cells by flow cytometry; format: cell-based, mouse; conditions: 5 μM, 24 h; for expression of HIF-1α in tumor cells: vs blank control
# Method: CT26 cells were evenly plated in a 6-well plate at 2×10^4 cells per well. After the cells adhered, DMSO solutions (5 μM) of the different compounds of the present disclosure were added separately, and the incubation was continued for 24 h. The medium was discarded, the cells were rinsed three times with PBS, and 0.2 mL of trypsin containing EDTA was added to each well. The digested cells were collected in a flow tube, and a supernatant was removed by centrifugation; the cells were resuspended in a PBS containing 5% goat serum, and an FITC anti-mouse HIF-1α antibody (1 μg/1×10^6 cells) was added, incubated at 4° C. for 30 min, and washed three times with PBS, and subjected to flow detection on-machine.
# [4] = system: mRNA expression of PD-L1 in CT26 cells; assay: PD-L1 mRNA expression in tumor cells by qPCR; format: cell-based, mouse; conditions: 5 μM, 48 h, GAPDH internal reference
# Method: CT26 cells were inoculated in a 6-well plate at 2×10^5 cells per well and placed in a 37° C. incubator. After the cells adhered, DMSO solutions (5 μM) of the compounds of the present disclosure were added separately, and the incubation was continued for 48 h. Total RNA was lysed and extracted, and reverse transcription and PCR experiments were conducted to detect an RNA level of PD-L1 in CT26 cells, using a GAPDH gene as an internal reference.
# [5] = system: PD-L1 expression in CT26 cells; assay: PD-L1 expression in tumor cells by Western blot; format: cell-based, mouse; conditions: 5 μM, 48 h
# Method: CT26 cells were inoculated in a 6-well plate at 2×10^4 cells per well and placed in a 37° C. incubator. After the cells adhered, DMSO solutions (5 μM) of compounds 1 to 8 were added separately, and the incubation was continued for 48 h. The medium was discarded, the cells were rinsed three times with pre-cooled PBS, and the washing solution was discarded. 0.2 nrii, of a cell lysis solution containing a protease inhibitor was added to each well and placed on ice to conduct lysis for 30 min.
# After the lysis was completed, a lysate and cell debris were scraped to one side of the Petri dish with a cell scraper, the lysate was transferred to a 1.5 mL Ep tube with a pipette, centrifuged at 4° C. (12,000 rpm/5 min), and a supernatant was collected to determine its protein concentration.
# The protein sample was diluted with a 1UPAlysis buffer to a certain concentration, 5×SDS loading buffer was added in a protein amount of 1 μg/μL, incubated on a metal bath at 95° C. for 5 min, cooled to room temperature, and the sample was loaded to an SDS-PAGE electrophoresis gel (5% for stacking gel and 12% for resolving gel). Under a voltage of 90 V, the protein was run to the bottom of the stacking gel to form a straight line, then the voltage was adjusted to 125 V, and the electrophoresis was stopped after the bromophenol blue appeared. […]
# [6] = system: PD-L1 expression in CT26 cells; assay: PD-L1 expression in tumor cells by flow cytometry; format: cell-based, mouse; conditions: 24 h, blank group 32.7%
# Method: CT26 cells were inoculated in a 6-well plate at 2×10^4 cells per well. After the cells adhered. […] The medium was discarded, the cells were rinsed three times with PBS, and 0.2 mL of trypsin containing EDTA was added to each well. The digested cells were collected in a flow tube, and a supernatant was removed by centrifugation. The cells were resuspended in a PBS containing 5% goat serum, and an anti-mouse PD-L1 primary antibody (1 μg/1×10^6 cells) was added, and the cells were incubated at 4° C. for 30 min and washed three times with PBS. An equivalent amount of APC-labeled goat anti-rabbit secondary antibody was added and incubation was continued for 30 min; the cells were washed 3 times with PBS and subjected to flow detection on-machine.
# [7] = system: Raw264.7 M2 tumor-associated macrophages (TAM2s); assay: Polarization of macrophages from M2 to M1 (PCR); format: cell-based, mouse; conditions: IL-4-induced TAM2s, 5 μM, 24 h, vs untreated TAM2s
# Method: A mouse macrophage cell line Raw264.7 was inoculated in a 24-well plate. After 12 hours of cell adhesion, the cells were further cultured for one day in a medium containing IL-4 (40 ng/mL) to induce the cells to differentiate into M2 tumor-associated macrophages (TAM2s). DMSO solutions (5 μM) of different groups of the compounds of the present disclosure were added to the TAM2s to treat for 24 h, the cells were collected and lysed, and a total RNA was extracted. The total RNA was subjected to reverse transcription and PCR experiments to detect the RNA levels of an M2 macrophage-specific protein argl and an M1 macrophage-specific protein Nos2 with an hprt gene as an internal reference.
# [8] = system: calreticulin in CT26 tumor cells; assay: Drug-induced immunogenic death (calreticulin, confocal); format: cell-based, mouse; conditions: doxorubicin-induced CT26 tumor cells, combination with DOX vs DOX alone, 24 h
# Method: CT26 cells were plated in confocal culture dishes, and after overnight cell adherence, different drug treatment groups were added, and the incubation was continued for 24 h. The medium was discarded, the cells were rinsed 3 times with PBS, and fixated with 4% paraformaldehyde for 10 min. The cells were rinsed 3 times with PBS for 3 min each time, a 3% BSA solution was added for blocking for 30 min at 37° C., and the blocking solution was removed with absorbent paper. 200 μuL of a calreticulin antibody (FITC-anti-CRT, 1:200) was added to each well and incubated at room temperature for I h in the dark. The cells were rinsed with PBS 3 times for 3 min each time, then a DAPI staining solution was added to each dish and incubated in the dark for 5 min. After washing three times with PBS, the cells were observed under a laser con focal microscope.
# [9] = CT26 cell line, chemotherapeutic drug in combination with compound 7 (sensitizer 5 μg/mL), 48 h
compound,measurement,setting,value
CC(C)=CCC[C@]1(C)C=Cc2c(O)c3c(c(CC=C(C)C)c2O1)O[C@]12C(=C[C@@H]4C[C@H]1C(C)(C)O[C@@]2(C/C=C(/C)C(=O)O)C4=O)C3=O [Gambogic acid],"IC50, Compound 7+",[1]; [9],0.792 ± 0.181 µg/mL
same,IC50,[2],2.18 ± 0.454 µg/mL
CCc1c2c(nc3ccc(OC(=O)N4CCC(N5CCCCC5)CC4)cc13)-c1cc3c(c(=O)n1C2)COC(=O)[C@]3(O)CC [Irinotecan],"IC50, Compound 7+",[1]; [9],1.415 ± 0.022 µg/mL
same,IC50,[2],2.42 ± 0.197 µg/mL
O=C1c2c(O)ccc(O)c2C(=O)c2c(NCCNCCO)ccc(NCCNCCO)c21 [Mitoxantrone],"IC50, Compound 7+",[1]; [9],0.815 ± 0.021 µg/mL
same,IC50,[2],2.12 ± 0.297 µg/mL
O=C1[O][Pt]2([NH][C@@H]3CCCC[C@H]3[NH]2)[O]C1=O [Oxaliplatin],"IC50, Compound 7+",[1],0.197 ± 0.022 µg/mL
same,"IC50, Compound 7−",[1],0.650 ± 0.009 µg/mL
CC1=C(O)C(=O)C=C2C1=CC=C1[C@@]2(C)CC[C@@]2(C)[C@@H]3C[C@](C)(C(=O)O)CC[C@]3(C)CC[C@]12C [Tripterine],"IC50, Compound 7+",[1],1.592 ± 0.142 µg/mL
same,"IC50, Compound 7−",[1],5.219 ± 0.242 µg/mL
CC[C@]1(O)C[C@H]2CN(CCc3c([nH]c4ccccc34)[C@@](C(=O)OC)(c3cc4c(cc3OC)N(C=O)[C@H]3[C@@](O)(C(=O)OC)[C@H](OC(C)=O)[C@]5(CC)C=CCN6CC[C@]43[C@@H]65)C2)C1 [Vincristine],"IC50, Compound 7+",[1]; [9],44.312 ± 1.851 µg/mL
same,IC50,[2],68.2 ± 2.29 µg/mL
O=C(O)CNC(=O)c1ncc(-c2cccc(Cl)c2)cc1O [compound 6],expression of HIF-1α in tumor cells,[3],best effect
same,mRNA expression level of PD-L1,[4],best effect
same,expression of PD-L1 in tumor cells (Western blot),[5],best effect
"Cc1nc(C(=O)NCC(=O)O)c(O)c2ccc(Oc3ccccc3)cc12 [compound 7, N-(4-Hydroxy-1-methyl-7-phenoxyisoquinoline-3-carbonyl)glycine]","cell viability, combination with chemotherapeutic drug DOX vs chemotherapeutic drug alone","[1]; CT26 cells, sensitizer 5 μg/mL, 48 h",best effect
same,"toxicity of doxorubicin (DOX), paclitaxel (PTX), oxaliplatin (OXA) or camptothecin (irinotecan, SN38) on CT26 cells","[1]; combination with compound 7, 48 h",increase the toxicity
same,reduction of HIF-1α,[3],45%
same,expression of HIF-1α in tumor cells,[3],best effect
same,PD-L1 expression rate,[6]; 10 μM compound 7 group,18.8%
same,PD-L1 expression rate,[6]; 2.5 compound 7 group,24%
same,PD-L1 expression rate,[6]; 5 1μM compound 7 group,20.8%
same,RNA level of M1 macrophage-specific protein Nos2,[7],significantly increased
same,RNA level of M2 macrophage-specific protein argl,[7],significantly decreased
same,mRNA expression level of PD-L1,[4],best effect
same,expression of PD-L1 in tumor cells (Western blot),[5],best effect
same,calreticulin expression (immunogenic death),[8],express more calreticulin
